Data: publication PMC9873984, “Membrane cholesterol regulates inhibition and substrate transport by the glycine transporter, GlyT2” (Life Science Alliance, 2023)

Molecular target: T1, GlyT2 F515W mutant (Homo sapiens, UniProt Q9Y345, F515W)
T1 sequence (Q9Y345 1-797 F515W): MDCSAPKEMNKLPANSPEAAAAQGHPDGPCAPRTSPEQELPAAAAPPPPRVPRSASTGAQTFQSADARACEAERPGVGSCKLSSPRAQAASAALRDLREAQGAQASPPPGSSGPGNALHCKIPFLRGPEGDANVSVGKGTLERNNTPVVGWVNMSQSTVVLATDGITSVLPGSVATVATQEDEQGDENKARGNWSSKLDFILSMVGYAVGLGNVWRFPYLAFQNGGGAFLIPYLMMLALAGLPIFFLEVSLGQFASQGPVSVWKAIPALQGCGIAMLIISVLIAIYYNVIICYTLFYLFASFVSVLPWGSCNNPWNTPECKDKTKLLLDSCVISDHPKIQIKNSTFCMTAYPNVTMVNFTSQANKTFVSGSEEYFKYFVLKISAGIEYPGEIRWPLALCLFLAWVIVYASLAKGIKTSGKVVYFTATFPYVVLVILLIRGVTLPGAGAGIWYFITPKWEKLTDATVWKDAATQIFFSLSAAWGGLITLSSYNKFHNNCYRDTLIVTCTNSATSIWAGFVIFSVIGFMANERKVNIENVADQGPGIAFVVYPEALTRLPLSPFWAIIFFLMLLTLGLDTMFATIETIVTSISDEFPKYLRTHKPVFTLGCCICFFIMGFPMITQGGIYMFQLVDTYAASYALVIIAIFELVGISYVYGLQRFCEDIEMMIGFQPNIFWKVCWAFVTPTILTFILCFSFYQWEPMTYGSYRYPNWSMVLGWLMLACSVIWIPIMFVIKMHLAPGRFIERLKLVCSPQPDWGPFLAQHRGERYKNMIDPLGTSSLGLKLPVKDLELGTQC
Experiment: Inhibitor washout time course (reversibility)
Format: cell-based
Parameters: expressed in transfected cells; host or cells: Xenopus laevis oocytes injected with mutant RNA (pOTV vector)
Settings: for Recovery at 30 Min / Half-life (transport current recovery): washout after 4 min IC50 concentration
Description: Reversibility of GlyT2 inhibitors was determined by applying an EC50 concentration of glycine followed by co-application of the inhibitor at an IC50 concentration once a stable current had been achieved. Inhibitors were applied for 4 min as this was sufficient time to produce substantial inhibition for each compound and allowed for their direct comparison. At the conclusion of 4 min (time 0), ND96 buffer was perfused through the recording chamber to wash the oocyte. […] Transport currents were normalized to glycine currents in the absence of inhibitor and converted to % recovery values via Y=It−It=0/Imax−It=0, where Y is % recovery, I is current in nA, Imax is the maximal current produced by the glycine EC50, and t is time in minutes. Washout kinetics were then determined by fitting % recovery values to the first-order rate equation: Y=(Y0−Plateau).e^(−Kt)+Plateau, where Y is the % recovery, Y0 is the point, which crosses the Y-axis (constrained to 0) and increases to the plateau (constrained to between 0 and 100), K is the rate constant (1/t), and t is time in minutes. […] Because of the slowly […] nature of the inhibitors, washout time courses involving cyclodextrin treatment could not be performed on the same cell. […] As these experiments could not occur on the same cell, differences in half-life and maximal recovery were analysed via an unpaired two-tailed t test.

Row | Compound | Increase of recovery at 30 min compared to WT (F515W vs WT) [fold] | Recovery at 30 Min (F515W) | Half-life (transport current recovery) (F515W) | Increase in recovery of current 30 min after application, vs WT (F515W) [%]
1 | CCCCCCCC/C=C\CCCCCCCC(=O)O[C@H](CC(=O)[O-])C[N+](C)(C)C [Oleoyl-L-Carnitine, oleoyl-L-carnitine] | 1.3 | 60.1% |  | 
2 | CCCCCCCC/C=C\CCCCCCCC(=O)N[C@@H](Cc1c[nH]c2ccccc12)C(=O)O [Oleoyl-L-Tryptophan, oleoyl-L-tryptophan] |  | No Recovery | No Recovery | 
3 | CCCCCCCC/C=C\CCCCCCCC(=O)N[C@@H](CCCCN)C(=O)O [Oleoyl-L-Lysine, oleoyl-L-lysine] |  | 57.8 ± 4.1% |  | 
4 | CCCCCCCC/C=C\CCCCCCCC(=O)N[C@@H](CC(C)C)C(=O)O [Oleoyl-L-Leucine, oleoyl-L-leucine] |  | 70.1 ± 1.9 % | 2.0 ± 0.2 min | 19.0
